Target: T1, β1,4-galactosyltransferase (Bos taurus, UniProt P08037)
T1 sequence (P08037 1-402): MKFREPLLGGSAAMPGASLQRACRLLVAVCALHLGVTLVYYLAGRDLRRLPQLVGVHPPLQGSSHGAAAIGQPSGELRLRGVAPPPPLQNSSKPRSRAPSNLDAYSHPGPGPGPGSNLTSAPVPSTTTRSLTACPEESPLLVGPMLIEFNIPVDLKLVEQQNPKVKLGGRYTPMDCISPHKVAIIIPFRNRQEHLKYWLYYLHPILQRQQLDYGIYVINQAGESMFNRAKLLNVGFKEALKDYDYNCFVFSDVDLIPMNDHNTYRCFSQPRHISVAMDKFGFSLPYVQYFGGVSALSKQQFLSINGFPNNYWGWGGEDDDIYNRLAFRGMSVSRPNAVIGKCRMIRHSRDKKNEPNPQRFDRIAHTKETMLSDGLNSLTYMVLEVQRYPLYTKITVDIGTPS
Assay: Glycosyltransferase assay on immobilized carbohydrates
Type: biochemical, bovine
Conditions: immobilized carbohydrate; UDP [^14C] galactose, 3.5 μM; phosphorimaging
Protocol: FIG. 41 represents the results of a glycosyltransferase assay. The surface comprises 3 different carbohydrate substrates defined by columns and a control column (no substrate). Each row was reacted with a different concentration of β1,4-galactosyltransferase and a constant concentration of sugar donor (UDP [^14C] galactose, 3.5 μM). The reaction was detected by phosphorimaging.
Referring to FIG. 41, in the glycosyltransferase assay, various carbohydrates were immobilized using a thiol chemical tag to bond to a monolayer thiolate bearing a maleimide group. A glycosyltransferase enzyme was added to the immobilized carbohydrates. The ability of the enzyme to add radioactively labeled sugars to the immobilized carbohydrates was measured. In the glycosyltransferase assay the enzyme that was employed is bovine recombinant β 1,4-galactosyltransferase. Preferably, the enzyme is at a concentration of about 10 pM to about 100 uM. More preferably, the enzyme is at a concentration of about 100 pM to about 1 uM. […]
Detection of glycosylation of the immobilized carbohydrate substrates on the base plate was performed radiometrically. The incorporation of ^14C was quantified by exposing a storage phosphor screen to the plate and then imaging it on a Variable Mode Imager (Typhoon 8600; Molecular Dynamics, Sunnyvale, Calif.). […]

Compound: CC(=O)N[C@H]1C(O)O[C@H](CO)[C@@H](O)[C@@H]1O (stereo partly shown) [GlcNAc]
- substrate for β1,4-galactosyltransferase: only the immobilized GlcNAc was a substrate

From patent US7371563B2, “Peelable and resealable devices for biochemical assays” (Surface Logix, Inc., priority 2000, dated 2008)
